The values that follow are results of earlier work, collected in US20210322464A1 (priority 2020, published 2021).

The conditions of the series: 1000 μg per day, constant syringe pump infusion for 14 days; cited from earlier work.

As to `O=[Se](O)O` [sodium selenite], the adverse effects result is reported as “No adverse effects”.
